# According to patent US20230054976A1, “METHODS FOR INHIBITION OF ALPHA-SYNUCLEIN mRNA USING SMALL MOLECULES” (The Scripps Research Institute, priority 2019, published 2023):
# Assays:
# SH-SY5Y cells = test: LDH release cytotoxicity assay; type: cell-based, human; conditions: 0.25, 0.5 and 1 μM, 48 h
# Method: To assess if Synucleozid has a cytotoxic effect, SH-SY5Y cells were treated with 0.25, 0.5 and 1 μM for 48 h, and cell viability and cytotoxicity were measured using CellTiter 96 Aqueous One Solution Cell Proliferation Assay (MTS) and LDH release assay, respectively, according to the manufacturers' instructions.
# [1] = test system: SH-SY5Y cells transcriptome; test: RNA-Seq transcriptome-wide differential expression; type: cell-based, human; conditions: 48 h; Synucleozid 1.5 μM vs vehicle; siRNA 0.1 μM vs scrambled control
# Method: RNA-Seq. SH-SY5Y cells were treated or transfected as described above for 48 h with Synucleozid (1.5 μM) and siRNA (0.1 μM). Total RNA was extracted using a miRNeasy Mini Kit (Qiagen, as described above) with on-column DNase I treatment. Qubit 2.0 Fluorometer (Invitrogen) was used for total RNA quantification. Quality of total RNA was assessed by using an Agilent Technologies 2100 Bioanalyzer RNA nano chip. Samples which have RNA integrity number >8.0 were used in future experiments. Probes provided by the NEBNext rRNA depletion module (catalog no.: E6310L, New England Biosciences) were used to deplete rRNA on approximate 500 ng of total RNA according to the manufacturer's recommendations. Library preparation was done with NEBNext Ultra 11 Directional RNA kit (catalog no.: E7760, New England Biosciences) according to the manufacturer's instructions. RNA samples were heated to 94° C. and simultaneously chemically fragmented in a divalent cation buffer for 15 min. Conversion of fragmented RNA to the first strand of cDNA was done with random hexamer priming and reverse transcription. To synthesize second strand, RNA template was removed and dUTP in place of dTTP was incorporated. […] Every sample with a base quality score >Q30 (<1 error per 1000 bp) generated around 20-25 million reads. Transcript abundance from these RNA samples were quantified using Kallisto (12). […]
# [2] = test system: control plasmid lacking 5′ UTR; test: In vitro translation assay, control lacking 5′ UTR; type: biochemical
# Method: (§1) Luciferase assay. The effect of Synucleozid treatment on translation from various IRE containing transcripts was determined using luciferase reporter assay. SH-SY5Y cells stably expressing 5' UTR were treated with Synucleozid for 48 h, washed with PBS and lysed with Passive Lysis Buffer for 15 min at room temperature. Luciferase reporter activity in each lysate was monitored using the dual luciferase reporter assay system kit (Promega. Madison, Wis., USA) according to the manufacturer's instructions. Luminescence from firefly luciferase reaction was measured using a microplate luminometer (Wallac 1420, Perkin Elmer) at 485 nm excitation and 535 nm emission wavelengths. Firefly luciferase reaction was then quenched by adding Stop & Glo reagent, and the internal fluorescence from GFP measured at the same setting was used to normalize luciferase expression. Luciferase reporter activity was expressed as percent change compared to the respective vehicle-treated control cells. In vitro translation assay. The mRNA template for in vitro translational assays was transcribed from the pIRES-Luc-EGFP-puro and pCDH-α-syn-5'-UTR-Luc-EGFP-puro plasmids by using an in vitro transcription system (RiboMax, Promega) with forward primer: [NT] and reverse primer: [NT]. […] Translation proceeded at 30° C. for 90 min, and then luminescence was measured with a Biomek FLx800 plate reader (1.0 s integration time).
# [3] = target: T1, IRP-2:SNCA IRE RNA complex (Homo sapiens, UniProt P48200); test: In vitro displacement of IRPs by gel mobility shift assay, IRP-2; type: binding; conditions: 0.2, 1, 5 μM; pre-incubation 1-60 min
# T1 construct: purchased Abnova
# Method: In vitro displacement of IRPs by gel mobility shift assays. SNCA IRE hairpin RNA was 5′-end labeled with [γ-^32P]ATP as previously described^5. Approximately, 2 pmoles of ^32P labeled RNA per 20 μL reaction was folded in 1× Assay Buffer by heating at 65° C. for 5 min and slowly cooling to room temperature. As indicated, vehicle, Synucleozid (0.2, 1, 5 μM) or unlabeled IRE RNA (1 μM, folded as described above and used as a positive control) was added to the samples, and the samples were incubated at room temperature for varying amounts of time (1-60 min as indicated). Then, 0.5 μg IRP-1 or IRP-2 (Abnova) was added, and the samples were incubated at room temperature for an additional 30 min. An equal volume of 2× Native Gel Loading Buffer (2×TBE, 50% Glycerol, 0.025% (w/v) Bromophenol blue and Xylene cyanol FF) was added to each sample. Note, Native Gel Loading Buffer added to Synucleozid-treated samples was supplemented with the same concentration of Synucleozid as in the sample to maintain a constant concentration. IRP:IRE complexes and free IRE were separated on a native 15% polyacrylamide prepared 1×TBE supplemented with the same concentration of Synucleozid as in compound-treated samples, and imaged using a Bio-Rad PMI phosphorimager. Images were quantified with BioRad's Quantity One software.
# 5′ UTR of SNCA mRNA = test: In vitro translation assay (rabbit reticulocyte lysate), SNCA-5′-UTR-Luc mRNA; type: biochemical, human
# Method: as §1
# [4] = test system: A-bulge-mutated RNA (fully paired RNA); test: Thermal melting experiment, fully paired RNA; type: binding
# From the text: Thermal melting experiment.
# [5] = test system: RNA-8 to 11 (mutated closing base pairs); test: Competitive binding assay (2-AP), RNA-8 to 11
# Method: EC50 was calculated from Eq. (1).
# T1 sequence (P48200 whole entry, species assumed, one chain of several): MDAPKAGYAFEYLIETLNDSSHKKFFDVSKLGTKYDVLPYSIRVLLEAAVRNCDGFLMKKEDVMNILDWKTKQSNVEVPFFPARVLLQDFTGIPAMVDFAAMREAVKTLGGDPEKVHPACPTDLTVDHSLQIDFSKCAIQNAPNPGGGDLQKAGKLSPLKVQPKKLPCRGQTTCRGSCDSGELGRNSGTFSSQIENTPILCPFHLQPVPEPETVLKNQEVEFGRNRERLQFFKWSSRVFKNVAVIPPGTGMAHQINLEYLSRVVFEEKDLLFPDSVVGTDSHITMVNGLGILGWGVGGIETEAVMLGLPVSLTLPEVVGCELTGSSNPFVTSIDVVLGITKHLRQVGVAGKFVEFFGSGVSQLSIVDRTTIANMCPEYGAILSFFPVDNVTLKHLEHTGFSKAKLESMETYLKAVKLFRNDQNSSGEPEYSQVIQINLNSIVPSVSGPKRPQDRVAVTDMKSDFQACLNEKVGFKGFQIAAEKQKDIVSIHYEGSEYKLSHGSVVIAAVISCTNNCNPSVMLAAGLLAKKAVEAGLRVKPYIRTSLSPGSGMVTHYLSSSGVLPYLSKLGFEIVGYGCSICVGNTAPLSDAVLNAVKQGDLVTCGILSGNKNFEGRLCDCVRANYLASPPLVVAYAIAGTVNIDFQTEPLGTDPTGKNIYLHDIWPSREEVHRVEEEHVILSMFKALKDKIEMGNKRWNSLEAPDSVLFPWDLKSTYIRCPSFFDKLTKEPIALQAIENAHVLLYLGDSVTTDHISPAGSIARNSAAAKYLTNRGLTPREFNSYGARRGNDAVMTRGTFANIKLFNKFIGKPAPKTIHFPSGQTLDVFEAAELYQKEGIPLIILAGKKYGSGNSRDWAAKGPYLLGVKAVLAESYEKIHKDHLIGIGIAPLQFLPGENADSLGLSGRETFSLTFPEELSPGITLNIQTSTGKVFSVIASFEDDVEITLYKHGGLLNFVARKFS
smiles,measurement,setting,value
N=C(N)c1ccc(Nc2ccc(-c3cc4ccc(C(=N)N)cc4[nH]3)cc2)cc1 [Synucleozid A],LDH release (cytotoxicity),SH-SY5Y cells,no toxicity
same,LDH release (cytotoxicity),SH-SY5Y cells; listed as Synucleozid,no effect
same,genes unchanged / genes detected,[1],19979/20034
same,"genes unchanged, percentage",[1],99.7%
same,inhibitory effect on construct lacking SNCA 5′ UTR,[2],No inhibitory effect
same,effect on binding of IRP-2 to SNCA IRE RNA,[3],"Neither Synucleozid concentration (0.2, 1, 5 μM) nor pre-incubation time (1, 5, 15, 60 min) has any significant effect"
same,"inhibition of luciferase expression in vitro, SNCA-5′-UTR-Luc",5′ UTR of SNCA mRNA,inhibited luciferase expression in a concentration-dependent manner
same,effect on thermal stability of A-bulge-mutated RNA,[4],no significant effect
same,effect of closing base pair mutation on binding affinity,[5],reduced binding affinity
